Publication PMC12492365, “Drug Interaction of Dasatinib with Thymoquinone: A Pharmacokinetic Study in Rats” (International Journal of Medical Sciences, 2025)
Where two headings read alike, the source gives them in different places.

What was measured:
CYP3A2 = test: Western blot of CYP3A2 protein expression in liver and lumen tissues; assay type: in vivo, Wistar rats; details: for Suppression of CYP3A2 upregulation: TQ 40 mg/kg p.o. seven days in DAS-treated rats vs DAS group; for Elevation of CYP3A2 protein expression: DAS 25 mg/kg p.o. vs normal controls
Experimental: The adult male Wistar rats (204-226 g) were procured from the College of Pharmacy Animal Care and Use Facility, King Saud University, Riyadh, Saudi Arabia. The animals were hold in polycarbonate rat cages, with 12h light/dark cycle at 25 ± 2 °C. All groups were allowed ad libitum before the study. This study was conducted following the ethical guidelines approved by the facility and the study was approved by the King Saud University College of Pharmacy Research Ethics Committee (KSU-SE-21-58). Overnight fasted animals (n=24) were divided into four groups (n=6 per group). Group I (normal controls) and Group II were administered normal saline by oral gavage for seven consecutive days. […] Group IV received TQ (40 mg/kg/day) by oral gavage for seven consecutive days. […] The collected blood was centrifuged at 3000 ×g for 10 minutes to separate the plasma, which was then collected and stored in Eppendorf tubes for UHPLC-MS/MS analysis. After completion of the study, the animals were euthanized, and liver and lumen tissues were collected for Western blot analysis. […] Briefly, DAS and ibrutinib (IBR;(internal standard, IS) were separated on an Acquity BEH C18 column. Prior to sample analysis, the method underwent validation for precision and accuracy. A non-compartmental analysis was empoyed to calculate the PK parameters of DAS using the PK Solver software (version 1.01). The liver and intestine tissues were homogenized in RIPA lysis buffer and incubated for 30 minutes, followed by centrifugation at 10,000 rpm for 20 minutes at 4 °C. The supernatants were then collected and stored at -20 °C. Total protein content was determined using the bicinchoninic acid (BCA) assay. Protein expression of CYP3A2, Pgp, and BCRP proteins were analyzed according to previously published methods, [17], [34], [35]. All data are expressed as the mean ± SEM.

Pgp = test: Western blot of Pgp protein expression in liver and lumen tissues; assay type: in vivo, Wistar rats; details: for Suppression of Pgp expression: TQ pretreatment in DAS-treated rats vs DAS group; for Increase of Pgp expression: DAS 25 mg/kg p.o. vs untreated animals
Experimental: (§1) The adult male Wistar rats (204-226 g) were procured from the College of Pharmacy Animal Care and Use Facility, King Saud University, Riyadh, Saudi Arabia. The animals were hold in polycarbonate rat cages, with 12h light/dark cycle at 25 ± 2 °C. All groups were allowed ad libitum before the study. This study was conducted following the ethical guidelines approved by the facility and the study was approved by the King Saud University College of Pharmacy Research Ethics Committee (KSU-SE-21-58). Overnight fasted animals (n=24) were divided into four groups (n=6 per group). Group I (normal controls) and Group II were administered normal saline by oral gavage for seven consecutive days. On the seventh day, Group II received a single dose of DAS (25 mg/kg, p.o.) via oral gavage. Group III received TQ (40 mg/kg, p.o.) via oral gavage for seven days, and two hours after the final TQ dose, DAS (25 mg/kg, p.o.) was administered by oral gavage. Group IV received TQ (40 mg/kg/day) by oral gavage for seven consecutive days. For the PK study, blood samples were collected via a tail vein in heparinized vacutainers at various time intervals (i.e., 0, 0.5, 1, 2, 4, 6, 8, 10, 12 h post DAS dosing). The collected blood was centrifuged at 3000 ×g for 10 minutes to separate the plasma, which was then collected and stored in Eppendorf tubes for UHPLC-MS/MS analysis. After completion of the study, the animals were euthanized, and liver and lumen tissues were collected for Western blot analysis. DAS concentrations in plasma samples were determined using an UHPLC-MS/MS method according to a previously described method. Briefly, DAS and ibrutinib (IBR;(internal standard, IS) were separated on an Acquity BEH C18 column. Prior to sample analysis, the method underwent validation for precision and accuracy. A non-compartmental analysis was empoyed to calculate the PK parameters of DAS using the PK Solver software (version 1.01).
(§2) The liver and intestine tissues were homogenized in RIPA lysis buffer and incubated for 30 minutes, followed by centrifugation at 10,000 rpm for 20 minutes at 4 °C. The supernatants were then collected and stored at -20 °C. Total protein content was determined using the bicinchoninic acid (BCA) assay. Protein expression of CYP3A2, Pgp, and BCRP proteins were analyzed according to previously published methods, [17], [34], [35].
(§3) All data are expressed as the mean ± SEM. The pharmacokinetic and protein expression data were compared using one-way analysis of variance followed by Dunnett's test and a p value of ≤0.05 was used for statistical significance.

BCRP = test: Western blot of BCRP protein expression in liver and lumen tissues; assay type: in vivo, Wistar rats; details: for Inhibition of BCRP protein expression: TQ pretreatment in the DAS treatment group; for Induction of BCRP protein expression: oral DAS vs untreated animals
Experimental: as §1, §2, §3

wistar rats = test system: wistar rats; parameters: method as in PMID 23440704, PMID 32273798; details: ref [46], [47], cited from earlier work
[1] = Pharmacokinetic study of oral dasatinib with and without TQ pretreatment, plasma UHPLC-MS/MS, non-compartmental analysis; assay type: in vivo, Wistar rats; details: rats
Experimental: as §1, §3

rats = details: 30 mg/kg, no reference given; cited from earlier work
[2] = DAS 25 mg/kg p.o. alone, mean ±SEM
[3] = DAS+TQ vs DAS alone, positive = increase
[4] = TQ pretreatment vs control (DAS alone), given as decrease
[5] = male, Wistar, rat, plasma, po, DAS 25 mg/kg p.o. alone, mean ±SEM

## CC1=CC(=O)C(C(C)C)=CC1=O [TQ, 2-Methyl-5-(propan-2-yl)cyclohexa-2,5-diene-1,4-dione]
CYP3A2; TQ alone 40 mg/kg/day seven days vs normal controls
  Effect on CYP3A2 expressions: did not significantly altered
CYP3A2; liver
  Suppression of CYP3A2 upregulation: 53.98%
CYP3A2; lumen
  Suppression of CYP3A2 upregulation: 40.30%
Pgp; TQ pretreatment alone vs untreated animals
  Effect on liver and lumen Pgp protein expressions: did not affect
Pgp; liver
  Suppression of Pgp expression: 47.97%
Pgp; lumen
  Suppression of Pgp expression: 37.72%
BCRP; TQ treatment alone vs normal controls
  Effect on liver and lumen BCRP protein levels: no significant changes
BCRP; liver
  Inhibition of BCRP protein expression: 50.48%
BCRP; lumen
  Inhibition of BCRP protein expression: 48.46%
Wistar rats; i.p. injection, female rats
  maximum tolerated dose (MTD): 15 mg/kg
Wistar rats; i.p. injection, male rats
  maximum tolerated dose (MTD): 22.5 mg/kg
Wistar rats; oral, both male and female rats
  maximum tolerated dose (MTD): 250 mg/kg

## Cc1nc(Nc2ncc(C(=O)Nc3c(C)cccc3Cl)s2)cc(N2CCN(CCO)CC2)n1 [DAS, Dasatinib]
[1]; [2]
  AUMC0-∞: 29259.52 ±3397.55 ng/ml*h^2
  CL: 0.01 ±0.00 (mg/kg)/(ng/ml)/h
  Vd: 0.11 ±0.00 (mg/kg)/(ng/ml)
[1]; [3]
  % Change in AUC0-t of DAS: 166.53%
  % Change in AUMC0-∞ of DAS: 0.34%
  % Change in Cmax of DAS: 213.26%
  % Change in Kel of DAS: 93.85%
  % Change in Tmax of DAS: 83.33%
[1]; [4]
  Decrease (reduction) in CL of DAS: 36.35%
  Decrease (reduction) in Vd of DAS: 67.70%
  Decrease in MRT of DAS: 49.12%
[1]; [5]
  AUC(0-inf): 2500 ± 113 ng·h/mL
  AUC(0-t): 1610 ± 28.9 ng·h/mL
  Cmax: 246 ± 3.34 ng/mL
  MRT: 11.5 ± 0.81 h
  half-life: 7.77 ± 0.65 h
  k el: 2.5e-05 s⁻¹
CYP3A2; liver
  Elevation of CYP3A2 protein expression: 91.84%
CYP3A2; lumen
  Elevation of CYP3A2 protein expression: 93.47%
Pgp; liver
  Increase of Pgp expression: 75.62%
Pgp; lumen
  Increase of Pgp expression: 77.19%
BCRP; liver
  Induction of BCRP protein expression: 74.82%
BCRP; lumen
  Induction of BCRP protein expression: 76.05%
rats
  Tolerability in acute toxicity studies: well tolerated
